{"source": "paper PMC9586930", "about": "“Molecular insights into the distinct signaling duration for the peptide-induced PTH1R activation” (Nature Communications, 2022)", "biological_target": "T1, PTH1R L174A mutant (Homo sapiens, UniProt Q03431, L174A)", "T1 construct": "a flag-tag was fused to the N terminal of full-length PTH1R (WT or mutant); expressed in transfected cells; host or cells: HEK293T", "T1 sequence (Q03431 27-593 L174A)": "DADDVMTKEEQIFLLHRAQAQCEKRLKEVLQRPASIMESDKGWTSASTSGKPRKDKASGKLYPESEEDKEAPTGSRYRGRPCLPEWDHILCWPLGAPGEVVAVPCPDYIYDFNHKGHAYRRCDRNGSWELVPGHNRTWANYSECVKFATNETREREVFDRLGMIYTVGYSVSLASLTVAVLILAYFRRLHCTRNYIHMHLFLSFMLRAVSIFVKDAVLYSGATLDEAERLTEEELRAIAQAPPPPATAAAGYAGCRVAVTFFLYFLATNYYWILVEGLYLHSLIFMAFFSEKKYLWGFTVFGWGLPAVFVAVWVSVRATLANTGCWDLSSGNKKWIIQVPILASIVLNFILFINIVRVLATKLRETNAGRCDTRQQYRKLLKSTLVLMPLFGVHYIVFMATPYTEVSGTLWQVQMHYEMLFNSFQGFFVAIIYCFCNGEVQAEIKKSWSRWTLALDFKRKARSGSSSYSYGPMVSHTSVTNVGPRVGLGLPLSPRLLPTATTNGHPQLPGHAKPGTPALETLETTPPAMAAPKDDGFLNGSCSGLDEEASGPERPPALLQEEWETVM", "assay": "cAMP accumulation assay (GloSensor), PTH1R L174A", "type": "cell-based", "conditions": "for ΔpEC50±SEM: relative to WT, n = 3 in triplicate; for ΔpEC50±SEM / Span±SEM: mean ± SEM; for Span±SEM: window between maximal response (Emax) and vehicle, n = 3", "procedure": "Human embryonic kidney 293 T (HEK293T, ATCC: CRL-1573) cells were transfected with a plasmid mixture consisting of pcDNA3.1-flag-PTH1R (WT or mutants) and the cAMP biosensor GloSensor-22F (Promega) at a ratio of 2:1 (see Supplementary Table 7 for a list of primers used in this study). After 24 h, transfected cells were plated onto a 384-well plate, which was treated with cell adherent reagent (Applygen) in advance. After another 12 h, cells were treated with Hank’s balanced salt solution for starvation and then incubated in CO2-independent media containing 4% GloSensor cAMP Reagent (Promega) at a volume of 5 μl per well and incubated for 20 min at RT before measurements for baseline luminescence (Spark Multimode microplate reader, TECAN). Next, test ligands were added at different concentrations from 10^−6 to 10^−13 M before second measurement. Finally, data were normalized to 100% of the maximal PTH (1-34) response for WT PTH1R using a sigmoidal dose-response in GraphPad Prism.\nStatistical analyses were performed on at least three individual datasets and analysed using GraphPad Prism software. Bars represent differences in the calculated agonist potency (pEC50) and maximum agonist response (Emax) for each mutant relative to the WT receptor. Data are mean± s.e.m. from at least three independent experiments, performed in triplicates. ns, not significant, ^nsP > 0.01; ^*P < 0.01; ^**P < 0.001; ^***P < 0.0001 (one-way analysis of variance (ANOVA) followed by Dunnett’s test, compared with the response of the WT). For dose-response experiments, data were normalized and analyzed using nonlinear curve fitting for the log (agonist) versus response (three parameters) curves."}
{"substance": "H-AVAEIQLMHQRAKWIQDARRRAFLHKLIAEIHTAEI-OH [LA-PTH, long-acting PTH analog, modified PTH/PTHrP hybrid]", "values": [{"measurement": "span (from the WT)", "setting": "PTH1R L1741.26A, replicate 1", "value": 93.64}, {"measurement": "ΔpEC50 (from the WT)", "setting": "PTH1R L1741.26A, replicate 1", "value": -0.262}, {"measurement": "span (from the WT)", "setting": "PTH1R L1741.26A, replicate 2", "value": 87.77}, {"measurement": "ΔpEC50 (from the WT)", "setting": "PTH1R L1741.26A, replicate 2", "value": -0.161}, {"measurement": "span (from the WT)", "setting": "PTH1R L1741.26A, replicate 3", "value": 98.4}, {"measurement": "ΔpEC50 (from the WT)", "setting": "PTH1R L1741.26A, replicate 3", "value": -0.17}, {"measurement": "ΔpEC50±SEM", "value": "-0.20±0.03"}, {"measurement": "ΔpEC50 (from the WT)", "setting": "replicate 1", "value": -0.262}, {"measurement": "ΔpEC50 (from the WT)", "setting": "replicate 2", "value": -0.161}, {"measurement": "ΔpEC50 (from the WT)", "setting": "replicate 3", "value": -0.17}, {"measurement": "Span±SEM", "value": "93.27±3.07"}]}
{"substance": "H-AVSEHQLLHDKGKSIQDLRRRELLEKLL-{Aib}-KLHTA-NH2 [ABL, Abaloparatide, an analog of PTHrP, short-acting PTH1R agonist]", "values": [{"measurement": "span (from the WT)", "setting": "PTH1R L1741.26A, replicate 1", "value": 94.46}, {"measurement": "ΔpEC50 (from the WT)", "setting": "PTH1R L1741.26A, replicate 1", "value": -0.37}, {"measurement": "span (from the WT)", "setting": "PTH1R L1741.26A, replicate 2", "value": 117}, {"measurement": "ΔpEC50 (from the WT)", "setting": "PTH1R L1741.26A, replicate 2", "value": -0.52}, {"measurement": "span (from the WT)", "setting": "PTH1R L1741.26A, replicate 3", "value": 129.9}, {"measurement": "ΔpEC50 (from the WT)", "setting": "PTH1R L1741.26A, replicate 3", "value": -0.682}, {"measurement": "ΔpEC50±SEM", "value": "-0.52±0.09"}, {"measurement": "ΔpEC50 (from the WT)", "setting": "replicate 1", "value": -0.37}, {"measurement": "ΔpEC50 (from the WT)", "setting": "replicate 2", "value": -0.52}, {"measurement": "ΔpEC50 (from the WT)", "setting": "replicate 3", "value": -0.682}, {"measurement": "Span±SEM", "value": "113.79±10.36"}]}
{"substance": "H-SVSEIQLMHNLGKHLNSMERVEWLRKKLQDVHNF-OH [PTH, Teriparatide, human PTH 1-34, long-acting peptide agonist of PTH1R]", "values": [{"measurement": "span (from the WT)", "setting": "PTH1R L1741.26A, replicate 1", "value": 90.7}, {"measurement": "ΔpEC50 (from the WT)", "setting": "PTH1R L1741.26A, replicate 1", "value": -0.41}, {"measurement": "span (from the WT)", "setting": "PTH1R L1741.26A, replicate 2", "value": 103.2}, {"measurement": "ΔpEC50 (from the WT)", "setting": "PTH1R L1741.26A, replicate 2", "value": -0.706}, {"measurement": "span (from the WT)", "setting": "PTH1R L1741.26A, replicate 3", "value": 154.9}, {"measurement": "ΔpEC50 (from the WT)", "setting": "PTH1R L1741.26A, replicate 3", "value": -0.481}, {"measurement": "ΔpEC50±SEM", "value": "-0.53±0.09"}, {"measurement": "ΔpEC50 (from the WT)", "setting": "replicate 1", "value": -0.41}, {"measurement": "ΔpEC50 (from the WT)", "setting": "replicate 2", "value": -0.706}, {"measurement": "ΔpEC50 (from the WT)", "setting": "replicate 3", "value": -0.481}, {"measurement": "Span±SEM", "value": "116.27±19.65"}]}
